Results as given in paper PMC12757955, “A nonavalent BODIPY with a multivalent arrangement of α-mannosides enables lectins recognition in fluorescence-based assays” (RSC Chemical Biology, 2025).

Tests used:
ConA [1] = target: T1, ConA (Canavalia ensiformis, UniProt P02866); assay: Competitive fluorescence polarization assay (displacement of Man9-BODIPY from ConA); assay type: binding
T1 construct: purchased Sigma Aldrich L7647-100MG
Experimental: Titration experiments allowed us to define the concentration of ConA to be used in a competitive displacement assay, which was set to 2 µM.
The fluorescence polarization is expressed in millipolarization (mP) units (A).
(§1) All experiments were performed at room temperature (25 °C).

ConA [2] = target: T1, ConA; assay type: binding; details: BODIPY 500 nM, ConA 500 nM
Experimental: Accordingly, FLIM was used in this work to directly visualize the formation of the glycoBODIPY/ConA complexes. […] The color scale in the images corresponds to the dye lifetime measured by FLIM for each pixel in the image.
Fig. 4 FLIM images measured for: (left panels) the (free) BODIPY solutions 500 nM in HEPES 25 mM pH 7.6, 1 mM CaCl2, 1 mM MnCl2 and for (right panels) solutions of the BODIPYs (500 nM) combined with ConA (500 nM in HEPES 25 mM pH 7.6, 1 mM CaCl2, 1 mM MnCl2).
FLIM was performed at room temperature (20 °C) on a Nikon Ti AX-R NSPARC confocal microscope using a Nikon Plan Apo λD 100× oil immersion objective (NA = 1.45). The microscope is equipped with a two-channel PicoQuant FLIM compact module system. Images of 1024 × 1024 pixels were acquired using a 488 nm pulsed laser for excitation and recording photons of fluorescence emission at a wavelength of 620 ± 50 nm for 90 s at a frequency of 25 MHz through a PMA Hybrid single photon counting module and a MultiHarp 150 multichannel event timer. Lifetime histograms were calculated and analyzed using SymphoTime©. Samples were inserted into LabteK chambers, and the images were acquired at 10 µm from the coverslip to avoid interactions of the dye with the surface of the coverslip.

ConA [3] = target: T1, ConA
Experimental: Accordingly, preliminary agglutination experiments were performed by following a previously reported protocol,[28] thus expecting aggregation of lectin with the mannosylated BODIPYs driven by the molecular recognition of the mannose residues on the fluorescent probes. Accordingly, Tris-BODIPY-OH was used as a negative control. The changes in the absorption (λ = 490 nm) of the solutions of the glycoBODIPYs treated with a fixed concentration of ConA (20 µM in HEPES 25 mM, pH 7.6, 1 mM CaCl2, 1 mM MnCl2) were monitored over time (0–30 min, Fig. 3A).
Data are normalized according to the maximum optical density value.
A solution of ConA (20 µM) in the buffer (HEPES 25 mM pH 7.6, 1 mM CaCl2, 1 mM MnCl2) was prepared. In a 96-well plate (Microplate, 96 wells, PS, F-BOTTOM (CHIMNEY WELL), clear, non-binding) were placed 100 µL of the 20 µM solution of each BODIPY, then 100 µL of the solution of ConA was added. The mixture was gently shaken for 10 minutes, then the optical density at λ = 490 nm was measured every minute for 30 minutes. The measurements were carried out in triplicate.

ConA [4] = target: T1, ConA; assay type: binding; details: FCS, probe 500 nM, ConA 50 nM
Experimental: 500 nM solution of each dye in the absence or presence of 50 nM ConA was placed in a glass-bottom ibidi 18-well µ-slides, precoated with albumin (Sigma Aldrich) to reduce dye adsorption to the surface. FCS experiments were performed with an Abberior Instruments microscope in the confocal mode using the Olympus UPlanSApo 60×/1.2 water immersion objective and steered through the Imspector software. Fluorescence was excited by a 561 nm pulsed excitation laser at an average power of around 10 µW, and detected by an avalanche photodiode through a 0.9 Airy-unit pinhole and a 580–630 nm emission filter (Semrock). Intensity fluctuations were acquired in 2 µs bins for 15–120 seconds at least 5 times per sample. The intensity traces were autocorrelated and further analysed with the open source FoCuS-scan software (https://github.com/dwaithe/FCS_scanning_correlator)[41] employing the 3D-diffusion model (fits in Fig. 8) with the aspect ratio of the optical point-spread-function and anomalous diffusion exponent fixed to 10 and 0.9, respectively.

concanavalin A (ConA) = target: T2, concanavalin A (ConA) (Canavalia ensiformis, UniProt P02866); assay: Fluorescence polarization (FP) titration of BODIPY probes with ConA; assay type: binding; details: probe 0.5 µM, increasing ConA
T2 construct: purchased Sigma Aldrich L7647-100MG
Experimental: All experiments were conducted at 25 °C.
as §1

Compound: OC[C@H]1OC(O)[C@@H](O)[C@@H](O)[C@@H]1O (stereo partly drawn) [D-mannose]
- Competitive displacement of the probe (in words) (ConA [1]): competitively displaced the probe
- mP0 (ConA [1]): 113.9 ± 4.0
- mPmax (ConA [1]): 432 ± 13

Compound: CC1=C(C#CCOCC(CO)(CO)CO)C(C)=[N+]2C1=C(c1ccc(-n3cc(COCC(CO)(CO)CO)nn3)cc1)c1c(C)c(C#CCOCC(CO)(CO)CO)c(C)n1[B-]2(F)F [Tris-BODIPY-OH]
- Change of fluorescence lifetime histogram in the presence of ConA (ConA [2]): the peak of the histogram is unchanged
- Change of turbidity / absorption (λ = 490 nm) over time with ConA (ConA [3]; BODIPY 20 µM solution, ConA 20 µM solution, HEPES pH 7.6, 0–30 min): No change in the absorption
- Shift of the autocorrelation curve in the presence of ConA (ConA [4]): no shift was observed
- Binding to ConA in FP titration (in words) (concanavalin A (ConA)): did not bind to ConA

Compound: CO[C@H]1O[C@H](CO)[C@@H](O)[C@H](O)[C@@H]1O [α-O-methyl-D-mannopyranoside]
- Deagglutination of glycoBODIPYs/ConA aggregates (ConA [3]; 50 mM competitor added, optical density at 490 nm): fast deagglutination process
